Results: patent publication US12692261B2, “Substituted heterocyclic compounds and therapeutic uses thereof” (Bayer Aktiengesellschaft, priority 2020, dated 2026)

Columns and labels:
[1] = target: T1, full-length human CSNK1A1 (Homo sapiens, UniProt P48729); test: CSNK1A1 High ATP Assay (ADP-Glo, 1 mM ATP); assay type: biochemical; settings: Table 3, read-out: CSNK1A1 high ATP assay IC50 [mol/l] (median);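 further: 30 min kinase reaction at 22 °C with 100 µM peptide substrate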
T1 construct: N-terminal Glutathion-S-Transferase (GST) and full-length human CSNK1A1; purchased Life Technologies PV4174; host or cells: baculovirus infected insect cells
Procedure, shortened: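 Kinase activity taken as ADP generated, quantified by ADP-Glo luminescence after 1 h ATP depletion and 1 h detection at 22 °C. Enzyme is GST–full-length human CSNK1A1 (insect cell-expressed), pre-bound to compound for 15 min, with phosphopeptide substrate and 1 mM ATP.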

[2] = target: T1, full-length human CSNK1A1; test: CSNK1A1 Assay 2 (ADP-Glo, 1 μM ATP, substrate biotin-Ahx-KRRRAL-pS-VASLPGL); assay type: biochemical; settings: Table 3, read-out: CSNK1A1 Assay 2 IC50 [mol/l] (median)
Procedure, shortened: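 Activity read as ADP generated (ADP-Glo luciferase luminescence, 1 h detection steps at 22 °C). Enzyme was insect-cell-expressed GST–full-length human CSNK1A1, compound-preincubated 15 min before reaction with phosphopeptide substrate and 1 μM ATP in 50 mM HEPES pH 7.5, 10 mM MgCl2.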

T1 sequence (P48729 whole entry): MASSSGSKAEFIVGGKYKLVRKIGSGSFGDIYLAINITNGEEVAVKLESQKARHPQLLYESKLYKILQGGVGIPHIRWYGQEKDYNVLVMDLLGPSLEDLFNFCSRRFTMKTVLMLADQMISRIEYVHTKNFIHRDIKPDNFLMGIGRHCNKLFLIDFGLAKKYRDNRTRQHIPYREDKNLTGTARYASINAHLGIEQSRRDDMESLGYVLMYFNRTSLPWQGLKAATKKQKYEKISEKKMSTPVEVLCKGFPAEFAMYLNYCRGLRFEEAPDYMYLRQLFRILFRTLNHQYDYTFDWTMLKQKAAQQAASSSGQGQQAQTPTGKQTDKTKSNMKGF

Work on `COc1cc(F)nc2c(-c3ccccn3)c(-c3ccnc(NC(=O)C(CC(F)F)c4ccc(F)cc4)c3)[nH]c12` (single isomer, unassigned; (+)) [Example 40, (+)-4,4-difluoro-N-{4-[5-fluoro-7-methoxy-3-(pyridin-2-yl)-1H-pyrrolo[3,2-b]pyridin-2-yl]pyridin-2-yl}-2-(4-fluorophenyl)butanamide] yielded an IC50 [1] of 3.69 nM and an IC50 [2] of 3.69 nM.
With `O=C(Nc1cc(-c2[nH]c3cccnc3c2-c2ccccc2)ccn1)C(CC(F)F)c1ccc(F)cc1` (single isomer, unassigned; (-)) [Example 23, (−)-4,4-difluoro-2-(4-fluorophenyl)-N-[4-(3-phenyl-1H-pyrrolo[3,2-b]pyridin-2-yl)pyridin-2-yl]butanamide] the IC50 [1] was 3740 nM and the IC50 [2] was 33.6 nM.
For `O=C(Nc1cc(-c2[nH]c3cccnc3c2-c2ccccn2)ccn1)C(CC(F)F)c1ccc(F)cc1` (racemic) [Example 10, 4,4-difluoro-2-(4-fluorophenyl)-N-{4-[3-(pyridin-2-yl)-1H-pyrrolo[3,2-b]pyridin-2-yl]pyridin-2-yl}butanamide], the IC50 [1] was 9.88 nM and the IC50 [2] was 2.61 nM.
In the case of `O=C(Nc1cc(-c2[nH]c3nccnc3c2-c2ccccn2)ccn1)C(CC(F)F)c1ccc(F)cc1` (racemic) [Example 31, (2RS)-4,4-difluoro-2-(4-fluorophenyl)-N-{4-[7-(pyridin-2-yl)-5H-pyrrolo[2,3-b]pyrazin-6-yl]pyridin-2-yl}butanamide], the IC50 [1] is reported as 3.04 nM and the IC50 [2] is reported as 3.04 nM.
Work on `O=C(Nc1cc(-c2[nH]c3cncnc3c2-c2ccccn2)ccn1)C(CC(F)F)c1ccc(F)cc1` (single isomer, unassigned; (+)) [Example 15, (+)-4,4-difluoro-2-(4-fluorophenyl)-N-{4-[7-(pyridin-2-yl)-5H-pyrrolo[3,2-d]pyrimidin-6-yl]pyridin-2-yl}butanamide] yielded an IC50 [1] of 30.9 nM and an IC50 [2] of 1.32 nM.
In the case of `O=C(Nc1cc(-c2[nH]c3nccnc3c2-c2ccccn2)ccn1)[C@@H](CC(F)F)c1ccc(F)cc1` (single isomer, unassigned) [Example 32], the IC50 [1] is reported as 1.37 nM and the IC50 [2] is reported as 1.37 nM.
`O=C(Nc1cc(-c2[nH]c3c(C4CCCO4)cc(F)nc3c2-c2ccccn2)ccn1)C(CC(F)F)c1ccc(F)cc1` (single isomer, unassigned) [Example 115, (2R or S)-4,4-difluoro-N-(4-{5-fluoro-7-[(2R or S)-oxolan-2-yl]-3-(pyridin-2-yl)-1H-pyrrolo[3,2-b]pyridin-2-yl}pyridin-2-yl)-2-(4-fluorophenyl)butanamide] was tested, and the IC50 [1] was 23.1 nM and the IC50 [2] was 5.84 nM.
`O=C(Nc1cc(-c2[nH]c3c(CC4CC4)cc(F)nc3c2-c2ccccn2)ccn1)C(CC(F)F)c1ccc(F)cc1` (single isomer, unassigned) [Example 48, (2R or S)—N-{4-[7-(cyclopropylmethyl)-5-fluoro-3-(pyridin-2-yl)-1H-pyrrolo[3,2-b]pyridin-2-yl]pyridin-2-yl}-4,4-difluoro-2-(4-fluorophenyl)butanamide] gave an IC50 [1] of 9.91 nM and an IC50 [2] of 9.91 nM.
`Cc1cc2[nH]c(-c3ccnc(NC(=O)C(CC(F)F)c4ccc(F)cc4)c3)c(-c3ccccn3)c2nc1F` (single isomer, unassigned) [Example 34, 4,4-difluoro-N-{4-[5-fluoro-6-methyl-3-(pyridin-2-yl)-1H-pyrrolo[3,2-b]pyridin-2-yl]pyridin-2-yl}-2-(4-fluorophenyl)butanamide] gave an IC50 [1] of 3.79 nM and an IC50 [2] of 3.79 nM.
Work on `O=C(Nc1cc(-c2[nH]c3cccnc3c2-c2cccc(F)n2)ccn1)C(CC(F)F)c1ccc(F)cc1` (single isomer, unassigned; (-)) [Example 26, (−)-4,4-difluoro-2-(4-fluorophenyl)-N-{4-[3-(6-fluoropyridin-2-yl)-1H-pyrrolo[3,2-b]pyridin-2-yl]pyridin-2-yl}butanamide] yielded an IC50 [1] of 15.8 nM and an IC50 [2] of 15.8 nM.
For `O=C(Nc1cc(-c2[nH]c3c(CC4CC4)cc(F)nc3c2-c2ccccn2)ccn1)C(CC(F)F)c1ccc(F)cc1` (racemic) [Example 46, (2RS)—N-{4-[7-(cyclopropylmethyl)-5-fluoro-3-(pyridin-2-yl)-1H-pyrrolo[3,2-b]pyridin-2-yl]pyridin-2-yl}-4,4-difluoro-2-(4-fluorophenyl)butanamide], the IC50 [1] was 23.2 nM and the IC50 [2] was 23.2 nM.
`O=C(Nc1cc(-c2[nH]c3c(OCC(F)F)cc(F)nc3c2-c2ccccn2)ccn1)C(CC(F)F)c1ccc(F)cc1` (single isomer, unassigned) [Example 29, (2R or S)—N-{4-[7-(2,2-difluoroethoxy)-5-fluoro-3-(pyridin-2-yl)-1H-pyrrolo[3,2-b]pyridin-2-yl]pyridin-2-yl}-4,4-difluoro-2-(4-fluorophenyl)butanamide] showed an IC50 [1] of 3.31 nM and an IC50 [2] of 3.31 nM.
Molecule `O=C(Nc1cc(-c2[nH]c3c(OCC(F)(F)F)ncnc3c2-c2ccccn2)ccn1)C(CC(F)(F)F)c1ccc(F)cc1` (single isomer, unassigned) [Example 127, (2R or S)-4,4,4-trifluoro-2-(4-fluorophenyl)-N-{4-[7-(pyridin-2-yl)-4-(2,2,2-trifluoroethoxy)-5H-pyrrolo[3,2-d]pyrimidin-6-yl]pyridin-2-yl}butanamide] has an IC50 [1] greater than 20000 nM and an IC50 [2] of 85 nM.
Work on `Cc1ccc2[nH]c(-c3ccnc(NC(=O)C(CC(F)F)c4ccc(F)cc4)c3)c(-c3ccccn3)c2n1` (single isomer, unassigned) [Example 5, 4,4-difluoro-2-(4-fluorophenyl)-N-{4-[5-methyl-3-(pyridin-2-yl)-1H-pyrrolo[3,2-b]pyridin-2-yl]pyridin-2-yl}butanamide] yielded an IC50 [1] of 119 nM and an IC50 [2] of 4.43 nM.
`O=C(Nc1cc(-c2[nH]c3c(OCC4CC4)ncnc3c2-c2ccccn2)ccn1)C(CC(F)F)c1ccc(F)cc1` (single isomer, unassigned) [Example 129, (2R or S)—N-{4-[4-(cyclopropylmethoxy)-7-(pyridin-2-yl)-5H-pyrrolo[3,2-d]pyrimidin-6-yl]pyridin-2-yl}-4,4-difluoro-2-(4-fluorophenyl)butanamide] showed an IC50 [1] of 10.3 nM and an IC50 [2] of 4.52 nM.
`O=C(Nc1cc(-c2[nH]c3ccc(F)nc3c2-c2ccc(F)cn2)ccn1)C(CC(F)F)c1ccc(F)cc1` (single isomer, unassigned; (+)) [Example 109, (+)-4,4-difluoro-N-{4-[5-fluoro-3-(5-fluoropyridin-2-yl)-1H-pyrrolo[3,2-b]pyridin-2-yl]pyridin-2-yl}-2-(4-fluorophenyl)butanamide] was tested, and the IC50 [1] was 3.14 nM and the IC50 [2] was 3.14 nM.
Work on `Cc1ccc2[nH]c(-c3ccnc(NC(=O)C(CC(F)F)c4ccc(F)cc4)c3)c(-c3ccccn3)c2n1` (single isomer, unassigned) [Example 6, 4,4-difluoro-2-(4-fluorophenyl)-N-{4-[5-methyl-3-(pyridin-2-yl)-1H-pyrrolo[3,2-b]pyridin-2-yl]pyridin-2-yl}butanamide] yielded an IC50 [1] of 2990 nM and an IC50 [2] of 68.2 nM.
